{
  "source": "patent US20180049996A1",
  "about": "“THERAPEUTIC AGENT FOR CHRONIC RESPIRATORY DISEASE AND COMPOSITION FOR INHIBITING CARDIAC FIBROSIS” (NIPPON HYPOX LABORATORIES INCORPORATED, priority 2015, published 2018)",
  "key": {"[1]": {"test_system": "Pulmonary Fibrosis Induced by Bleomycin", "assay": "Body weight and relative weight of lungs, pulmonary fibrosis induced by bleomycin", "format": "in vivo, male SD rats", "details": "test groups 2 and 3: bleomycin 7.5 mg/kg + HTHQ 50 or 200 mg/kg/day oral; day 20; compared to bleomycin-single group, p<0.05", "description": "(§1) Bleomycin is used to produce disease-model animals of interstitial pneumonia. The bleomycin and 2,3,5-trimethylhydroquinone-1-hexyl ether (HTHQ) as the hydroquinone derivative represented by the general formula (1) described above of the present invention were simultaneously administered to male SD rats of 10 week old after birth to examine the effect of the action. The test groups consisted of the control group to which sterile saline was administered; test group 1 to which bleomycin (7.5 mg/kg body weight) alone was administered; test group 2 to which bleomycin (7.5 mg/kg body weight) and HTHQ (50 mg/kg body weight/day) were administered in combination; and test group 3 to which bleomycin (7.5 mg/kg body weight) and HTHQ (200 mg/kg body weight/day) were administered in combination.\n(§2) In test groups 1 to 3, bleomycin was orally administered in a single dose. In test groups 2 and 3, 2,3,5-trimethylhydroquinone-1-hexyl ether (HTHQ) was daily orally administered for 10 or 20 days starting from 24 h after the administration of bleomycin. In test group 1, olive oil, which was used as a solvent of HTHQ, was daily orally administered at 10 mL/kg/day starting from 24 h after the administration of bleomycin. The number of animals in each group was 16. 8 animals of each group were sacrificed on days 10 and 20 after the administration of bleomycin and measurement of body weight, lung autopsy, histopathologic examination of lungs and bronchoalveolar lavage examination were conducted.\nThe body weight of the rats in the control group increased over time during the test period. […] The weight of the interstitial tissue of lungs tends to increase and the relative weight of lungs tends to rise when the tissue fibroses. […] Thus, it was expected that the degree of the progression of pulmonary fibrosis of the rats in test groups 2 and 3, to which HTHQ was administered, was less than the rats in test group 1."}, "[2]": {"test_system": "Pulmonary Fibrosis Induced by Bleomycin", "assay": "Bronchoalveolar lavage (BAL) examination, cell numbers, pulmonary fibrosis induced by bleomycin", "format": "in vivo, male SD rats", "description": "as §1, §2\nBronchoalveolar lavage (BAL) examination was conducted on the rats in the control group and the test groups. When interstitial pneumonia developed, the infiltration of inflammatory cells occurs and thus the total cell number in BAL fluid increases. The total cell numbers on day 10 after the administration of bleomycin were as follows: 2×10^5 cells in the control group, 9×10^5 cells in test group 1 (the bleomycin-single administration group), 6.5×10^5 cells in test group 2 (the low-dose HTHQ-administered group, 50 mg/kg body weight), and 10.5×10^5 cells in test group 3 (the high-dose HTHQ-administered group, 200 mg/kg body weight), and thus the effect of HTHQ administration was not found on day 10 after the administration of bleomycin.\nWhen interstitial pneumonia developed, the infiltration of alveolar macrophages to interstitial tissue occurs and thus the alveolar macrophage number in BAL fluid increases. The alveolar macrophage numbers on day 10 after the administration of bleomycin were as follows: 1.45×10^5 cells in the control group, 4.5×10^5 cells in test group 1 (the bleomycin-single administration group), 1.99×10^5 cells in test group 2 (the low-dose HTHQ-administered group), and 3.24×10^5 cells in test group 3 (the high-dose HTHQ-administered group), and thus the effect of HTHQ administration was not found on day 10 after the administration of bleomycin. However, on day 20 after the administration, while the alveolar macrophage number of the bleomycin-single administration group was 5.5×10^5 cells, the alveolar macrophage number of the low-dose HTHQ-administered group was 3×10^5 cells and the alveolar macrophage number of the high-dose HTHQ-administered group was decreased to 2×10^5 cells.\nWhen interstitial pneumonia developed, the infiltration of inflammatory cells of neutrophils to interstitial tissue occurs and thus the neutrophil number in BAL fluid increases. The neutrophil numbers on day 10 after the administration of bleomycin were as follows: 1.04×10^4 cells in the control group, 2.28×10^5 cells in test group 1 (the bleomycin-single administration group), 1.44×10^5 cells in test group 2 (the low-dose HTHQ-administered group), and 5.83×10^5 cells in test group 3 (the high-dose HTHQ-administered group), and thus the effect of HTHQ was not found on day 10 after the administration of bleomycin. […]"}, "[3]": {"details": "Test group 2: bleomycin + HTHQ 50 mg/kg/day oral, day 10"}, "[4]": {"details": "Test group 3: bleomycin + HTHQ 200 mg/kg/day oral, day 10"}, "[5]": {"details": "bleomycin + HTHQ 50 mg/kg/day oral (low-dose), day 20"}, "[6]": {"details": "bleomycin + HTHQ 200 mg/kg/day oral (high-dose), day 20"}},
  "data": [
    {"compound": "CCCCCCOc1cc(C)c(O)c(C)c1C", "note": "[HTHQ, 2,3,5-trimethylhydroquinone-1-hexyl ether]", "values": [
      {"measurement": "relative weight of lungs", "setting": "[1]", "value": "significantly low"},
      {"measurement": "alveolar macrophage number in BAL fluid", "setting": "[2]; [3]", "value": "1.99×10^5 cells"},
      {"measurement": "lymphocyte number in BAL fluid", "setting": "[2]; [3]", "value": "3.07×10^5 cells"},
      {"measurement": "neutrophil number in BAL fluid", "setting": "[2]; [3]", "value": "1.44×10^5 cells"},
      {"measurement": "total cell number in BAL fluid", "setting": "[2]; [3]", "value": "6.5×10^5 cells"},
      {"measurement": "alveolar macrophage number in BAL fluid", "setting": "[2]; [4]", "value": "3.24×10^5 cells"},
      {"measurement": "lymphocyte number in BAL fluid", "setting": "[2]; [4]", "value": "1.43×10^5 cells"},
      {"measurement": "neutrophil number in BAL fluid", "setting": "[2]; [4]", "value": "5.83×10^5 cells"},
      {"measurement": "total cell number in BAL fluid", "setting": "[2]; [4]", "value": "10.5×10^5 cells"},
      {"measurement": "alveolar macrophage number in BAL fluid", "setting": "[2]; [5]", "value": "3×10^5 cells"},
      {"measurement": "lymphocyte number in BAL fluid", "setting": "[2]; [5]", "value": "0.53×10^5 cells"},
      {"measurement": "neutrophil number in BAL fluid", "setting": "[2]; [5]", "value": "4.34×10^5 cells"},
      {"measurement": "total cell number in BAL fluid", "setting": "[2]; [5]", "value": "7.9×10^5 cells"},
      {"measurement": "alveolar macrophage number in BAL fluid", "setting": "[2]; [6]", "value": "2×10^5 cells"},
      {"measurement": "lymphocyte number in BAL fluid", "setting": "[2]; [6]", "value": "0.3×10^5 cells"},
      {"measurement": "neutrophil number in BAL fluid", "setting": "[2]; [6]", "value": "1.49×10^5 cells"},
      {"measurement": "total cell number in BAL fluid", "setting": "[2]; [6]", "value": "3.8×10^5 cells"}
    ]}
  ]
}
